# Results from US20140163099A1, “ANTIMICROBIAL COMPOSITION” (TAKASAGO INTERNATIONAL CORPORATION, priority 2011, published 2014).
# Tested on: target microbe species
# Assay: Growth inhibition activity compared with 3-menthoxypropane-1,2-diol
# Format: cell-based
# Settings: depending on kinds of target microbe species
# Description: Although the all present cooling agents can have growth inhibition activities against both aerobic and anaerobic microorganisms (e.g. bacteria and fungi, etc.), menthyl 3-hydroxybutanoate and 3-menthoxypropan-1-ol have specifically high growth inhibition activities and potent growth inhibition activities against both aerobic and anaerobic microorganisms. Examples of microorganisms include Corynebacterium, Actinomyces and so on. Menthyl 3-hydroxybutanoate and 3-menthoxypropan-1-ol have 2 to 8 times as much growth inhibition activity as 3-menthoxypropane-1,2-diol (which is known as an antimicrobial agent), and can have more than or equal to 8 times as much growth inhibition activity as 3-menthoxypropane-1,2-diol, depending on kinds of target microbe species.
# Furthermore, when compared 2-methyl-3-(menthoxy)propane-1,2-diol with 3-menthoxypropane-1,2-diol (which is known as an antimicrobial agent), the former has about 2 times as much growth inhibition activity as the latter, depending on kinds of target microbe species. […]
# In the present invention, the growth inhibition activity, which is an indicator of the antimicrobial activity, is evaluated by determining the Minimum Inhibitory Concentration (MIC) with an agar or liquid medium.
smiles,measurement,value
"CC1CCC(C(C)C)C(OCC(C)(O)CO)C1 (stereo not shown) [CA1, 2-methyl-3-(menthoxy)propane-1,2-diol]","growth inhibition activity as multiple of 3-menthoxypropane-1,2-diol",about 2 times
